This is an account of results in US9546367B2, “siRNA compositions and methods for inhibiting gene expression in tumor initiating cells of breast cancer” (priority 2011, dated 2017).

The subject of data set [1] is BT549. Kind of data set: in vitro MSFE with nanoliposome/silicon particle packaged siRNA. The data set is classed as cell-based, human. The following applies: for secondary MSFE: BT549, siRNA, Day 8, p<0.05; for primary and secondary MSFE: BT549 incubated with MSV/siRNA. Here is the method: (§1) “Claudin-low”-like human breast cancer cell lines (SUM159 and BT549) were plated in 24-well ultralow attachment plates with mammary epithelial growth medium (MEGM) (5,000 cells/well). Both cell lines were then treated with 1 μg/well/6 wells of silicon particles loaded with DOPC nanoliposomes/siRNA. The primary MSs were allowed to grow for 3 days. MFs were counted on Day 3 with a GelCount colony counter (Oxford Optronix, Oxford, UK). Mammosphere-Forming Efficiency (MSFE) was calculated by dividing the number of MSs by the number of seeded cells. In addition, established MSs were serially passaged by dissociation, and single cells were re-plated on fresh 24-well, ultra-low-attachment plates to form secondary mammospheres, which were counted after 3 days. One-way ANOVA and Tukey tests were performed. A p-value of less than 0.05 was considered significant.
(§2) To develop a more clinically relevant model, two of the identified candidates (MLF2 and RPL39L) were compared to Stat3 (positive control), and their siRNA sequences identified within the shRNA vector. These siRNAs were then packaged in nanoliposomes and tested for MSFE using the same protocol as above, except for the addition of packaged siRNA instead of lentiviral shRNA. (N.B. wherein shRNA requires a promoter and needs to be transcribed in order to function, siRNA functions by itself once incorporated into recipient cells).
(§3) To develop siRNA nanotherapeutics targeting TIC, studies have been conducted to confirm the essential roles of the candidate TIC genes. Exemplary siRNA oligonucleotides specific for STAT3, MFL2, and RPL39L were formulated into nanoliposomes, which were then loaded into porous silicon MSV particles. For in vitro assay, BT549 and SUM159 cells were incubated with MSV/siRNA, and primary and secondary MSFE was measured. […] For in vivo assessment, SCID/Beige mice were inoculated with SUM159 tumor, and treated with MDS/siRNA delivered by tail vein injection. Cells were then isolated from tumor mice 3 weeks later, and MSFE was measured. […] These studies indicate that 1) MDS/siRNA could successfully be delivered to tumor tissues effectively in vivo, 2) uptake of MDS/siRNA by TIC was efficient, and 3) MFL2 and RPL39L were essential genes for TIC.
(§4) The siRNA sequences of two candidate genes RPL39 and MLF2 were packaged in nanoliposomes and the effects on MSFE determined in vitro, as described above, using packaged siRNA instead of lentiviral shRNA.

Data set [2] has as its system SUM159. The description is as above. It counts as cell-based, human. The following applies: for secondary MSFE: SUM159, siRNA, Day 8, p<0.05; for primary and secondary MSFE: SUM159 incubated with MSV/siRNA. The protocol:
as §1, §2, §3, §4

Data set [3] has as its system MDAMB231. Kind of data set: in vitro MSFE with packaged siRNA. The data set is classed as cell-based, human. The following applies: Day 8, p<0.05.
Description: FIG. 7A, FIG. 7B, and FIG. 7C show confirmation of BCSC target genes and comparison of changes in mammosphere formation efficiency. […] Data analyzed by one-way ANOVA and plotted as mean±SEM for n=6 replicates; *p<0.05;
as §4

The test system of data set [4] is MDAMB231 tumor xenografts. Kind of data set: long-term in vivo siRNA treatment of MDAMB231 xenografts. Details: species or system SCID-Beige mice. The following applies: p<0.05; for median survival: siRNA with chemotherapy (docetaxel) over chemotherapy alone. The protocol:
FIG. 8A, FIG. 8B, and […] show long-term, in vivo treatment in siRNA MDAMB231 xenografts. Triple-negative breast cancer cell line, MDAMB231 was injected into the mammary fat pad of SCID beige mice (n=9). These tumors were randomized into six groups: vehicle+scrambled siRNA, vehicle+RPL39 siRNA, vehicle 4 MLF2 siRNA, docetaxel (20 mg/kg, i.p.)+scrambled siRNA, docetaxel (20 mg/kg, i.p.)+RPL39 siRNA, docetaxel (20 mg/kg, i.p.)+MLF2 siRNA. Tumor volume was measured twice weekly and reported as tumor volume fold-change over time.
Long-term in vivo treatment efficacy studies: three million cells MDAMB231 cancer cells, which grow primary as well as metastatic tumors, were injected in the mammary fat pad of SCID-Beige mice and allowed them to grow to 150-300 mm^3 tumors, and randomized them into 6 groups: (1) vehicle+scrambled siRNA. (2) vehicle+MLF2 siRNA. (3) vehicle+RPL39 siRNA, (4) docetaxel (20 mg/kg)+scrambled siRNA, (5) docetaxel (20 mg/kg)+MLF2 siRNA, and (6) docetaxel (20 mg/kg)+RPL39 siRNA. Each injection was loaded with 15 μg of siRNA per animal. These groups received three cycles of treatment every 14 days apart starting at Day 0, and cationic liposome packaged siRNA was administered through tail vein injection thrice weekly.
In the shRNA knockdown experiments, the mean and standard deviation of all measurements from every replicated experiment of each plate were estimated. The Z-score was calculated by subtracting […] and dividing the difference by standard deviation. […] Different treatment groups were compared by one-way ANOVA to determine statistical significance in the confirmatory shRNA, nanoliposome siRNA, and tumor volume fold-change experiments. This was followed by Tukey analysis for a pairwise comparison of the different treatment groups. In the tumor recurrence studies, events were defined as first appearance of tumor >50 mm^3 after completion of treatment. Time to recurrence was derived by the Kaplan-Meier method, with differences compared using the generalized Mann-Whitney-Wilcoxon rank-sum test.

The test system of data set [5] is eNOS. Kind of data set: Western blot of nitric oxide synthases after siRNA knockdown. It counts as cell-based, human. The note with it: three triple-negative cell lines treated in vitro with siRNA. Here is the method: (§5) In order to confirm the pathways involved in BCSC targeting, western blot analysis was conducted with siRNA knockdown and overexpression of RPL39 and MLF2 in three breast cancer cell lines (SUM159, BT549 and MDAMB231). Briefly, 30 μg of whole cell extracts were quantified and run on a 4-20% gel for 1 hr, and transferred onto nitrocellulose membranes. The primary antibodies were incubated overnight at the following dilutions eNOS (1:500), nNOS (1:500), and iNOS (1:1000) (Millipore, Bellerica, Mass., USA) followed by one-hour secondary antibody incubation, and development using chemiluminescence.

The subject of data set [6] is iNOS. The data set is described as above. It counts as cell-based, human. The following applies: three triple-negative cell lines (SUM159, BT549, MDAMB231) treated in vitro with siRNA. Here is the method: as §5
Data set [7] concerns nNOS. The description is as above. The data set is classed as cell-based, human. The following applies: three triple-negative cell lines treated in vitro with siRNA. The protocol: as §5
The mark [8] stands for this setting: siRNA alone (15 μg per injection) vs vehicle treated groups.
Where [9] appears, read: siRNA in combination with docetaxel (20 mg/kg).

For “MLF2 siRNA: siRNA against myeloid leukemia factor 2; sense SEQ ID NO: 3 CCCTGATGGATCCCTTTGCTAT, antisense SEQ ID NO: 19 ATAGCAAAGGGATCCATCAGGA (packaged in nanoliposomes, chemistry not given here, further chemistry not given here)”, the “secondary MSFE” value in data set [1], in data set [2] and in data set [3] was “significantly reduced” throughout. Also, the “primary and secondary MSFE” value in data set [1] and in data set [2] was “significant reduction” throughout. Also, the tumor volume entry in data set [4] (setting [8]) is “Significant reduction”; in data set [4] (setting [9]), “significantly reduced”. In data set [4], the median survival entry was “significantly prolonged”. For the same substance, the eNOS result in data set [5] is listed as “decrease”. Besides, the iNOS signaling entry in data set [6] is “clear reduction”. The nNOS result in data set [7] is on record as “no changes”.
Turning to “RPL39 siRNA: siRNA against ribosomal protein L39-like; sense SEQ ID NO: 15 ACGATTCCTGGCCAAGAAACAA, antisense SEQ ID NO: 31 TTGTTTCTTGGCCAGGAATCGC (listed as DNA, chemistry not fully specified)”, the “secondary MSFE” value in data set [1], in data set [2] and in data set [3] was “significantly reduced” in each case. Moreover, the “primary and secondary MSFE” value in data set [1] and in data set [2] was “significant reduction” each time. Also, the figures for the tumor volume entry in data set [4] (setting [8]) and in data set [4] (setting [9]) were “Significant reduction” and “significantly reduced”, respectively. Moreover, the median survival entry in data set [4] was “significantly prolonged”. The eNOS entry in data set [5] is “decrease”. Also, the iNOS signaling result in data set [6] is on record as “clear reduction”. Also, the nNOS result in data set [7] is reported as “no changes”.
